Measured values reported in patent US7598255B2 (Janssen Pharmaceutica NV, priority 2005, dated 2009).
Counter-ions that a name gives are not always drawn.

How the values were obtained:
[1] = molecular target: T1, 5-HT2B receptor (Homo sapiens, UniProt P41595); experiment: Affinity for 5HT2 receptor binding sites, h5-HT2B, [3H]mesulergine; conditions: CHO h5-HT2B membranes
[2] = molecular target: T1, 5-HT2B receptor; experiment: In vitro functional assay for 5-HT2 receptor (intracellular calcium, FLIPR), 5-HT2B; type: cell-based; conditions: same cell lines as receptor binding, read-out: pKb 5-HT2B (converted)
Method: In vitro functional properties of these compounds on the different 5-HT2 receptor substypes were determined using fluorometric imaging plate reader (FLIPR) based calcium assay as previously described (Porter, R. H. et al. Br. J. Pharmacol. 1999, 128, 13-20; Jerman, J. C. et al. Eur. J. Pharmacol. 2001, 414, 23-30). The 5-HT2 receptors are linked to the Gq family of G proteins and to subsequent activation of phospholipase C, induction of phosphoinositide metabolism and to an increase in intracelular calcium concentration. The same cell lines as described in the previous section (receptor binding) were used for the FLIPR experiments.

[3] = molecular target: human recombinant 5-HT6 receptor (Homo sapiens, UniProt P50406); experiment: Affinity for 5-HT6 receptor binding sites, [3H]LSD; conditions: HEK-293 h5-HT6 membranes
Sequence of human recombinant 5-HT6 receptor (P50406 whole entry): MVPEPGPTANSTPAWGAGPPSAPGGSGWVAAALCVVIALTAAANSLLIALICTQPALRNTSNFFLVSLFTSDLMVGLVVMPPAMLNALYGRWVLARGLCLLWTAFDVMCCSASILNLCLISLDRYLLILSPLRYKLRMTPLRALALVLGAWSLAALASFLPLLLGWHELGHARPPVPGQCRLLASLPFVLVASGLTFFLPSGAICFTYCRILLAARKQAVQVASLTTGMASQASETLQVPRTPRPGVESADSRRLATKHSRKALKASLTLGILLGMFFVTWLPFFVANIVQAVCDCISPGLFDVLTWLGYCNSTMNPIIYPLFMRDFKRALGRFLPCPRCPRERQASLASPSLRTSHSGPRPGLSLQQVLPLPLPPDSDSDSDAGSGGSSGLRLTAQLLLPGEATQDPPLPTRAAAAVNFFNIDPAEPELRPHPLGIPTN

[4] = molecular target: T2, human recombinant 5-HT2C receptor (Homo sapiens, UniProt P28335); experiment: Affinity for 5HT2 receptor binding sites, h5-HT2C, [3H]mesulergine; conditions: CHO h5-HT2C membranes
T2 sequence (P28335 33-458): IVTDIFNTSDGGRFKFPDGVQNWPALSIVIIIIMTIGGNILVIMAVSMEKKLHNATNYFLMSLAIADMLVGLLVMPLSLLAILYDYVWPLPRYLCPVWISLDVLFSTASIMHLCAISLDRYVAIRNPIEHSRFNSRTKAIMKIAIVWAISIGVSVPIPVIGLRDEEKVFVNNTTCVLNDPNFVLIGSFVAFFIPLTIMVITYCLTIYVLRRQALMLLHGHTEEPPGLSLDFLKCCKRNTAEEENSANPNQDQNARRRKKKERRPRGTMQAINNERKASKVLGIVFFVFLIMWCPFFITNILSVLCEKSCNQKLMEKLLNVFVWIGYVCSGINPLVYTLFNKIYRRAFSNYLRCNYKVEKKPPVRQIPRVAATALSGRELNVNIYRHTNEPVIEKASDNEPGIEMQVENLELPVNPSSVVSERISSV
Method: (§1) Sigmoidal inhibition curves were generated and fitted by nonlinear regression analysis (GraphPad Prism).
Receptor binding was performed using the human recombinant 5-HT2A (GB: X57830), 5-HT2B (GB: Z36748) and 5-HT2C (GB: M81778) receptors. The affinity of the compounds for the 3 different human 5-HT2 receptor subtypes was evaluated by competitive radioligand binding assays using [^3H]ketanserin (h5-HT2A) or [^3H]mesulergine (h5-HT2B and h5-HT2C). The assays were performed on membranes prepared from NIH3T3 stably transfected with h5-HT2A or CHO stably transfected with h5-HT2B and h5-HT2C.

[5] = molecular target: rat 5-HT7a receptor (Rattus norvegicus, UniProt P32305); experiment: Affinity for 5-HT7 receptor binding sites, radioligand binding with [3H]5-CT; conditions: membranes of HEK-293 cells with rat 5-HT7a, 1 nM [3H]5-CT
Sequence of rat 5-HT7a receptor (P32305 whole entry): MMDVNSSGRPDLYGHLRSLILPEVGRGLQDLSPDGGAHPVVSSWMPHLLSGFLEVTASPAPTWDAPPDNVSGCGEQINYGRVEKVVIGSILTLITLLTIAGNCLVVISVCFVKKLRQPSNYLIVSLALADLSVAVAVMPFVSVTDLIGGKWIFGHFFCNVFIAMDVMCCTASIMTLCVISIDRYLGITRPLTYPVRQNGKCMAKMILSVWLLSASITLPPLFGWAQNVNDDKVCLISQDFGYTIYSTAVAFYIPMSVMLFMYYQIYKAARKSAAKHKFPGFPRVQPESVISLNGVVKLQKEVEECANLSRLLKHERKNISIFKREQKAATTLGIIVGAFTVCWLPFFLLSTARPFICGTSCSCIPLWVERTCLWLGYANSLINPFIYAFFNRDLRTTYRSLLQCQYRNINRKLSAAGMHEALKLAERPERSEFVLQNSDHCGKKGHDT
How it was run: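 Competition binding on membranes from HEK-293 cells stably expressing rat 5-HT7a, 135 μg protein/mL in 50 mM Tris-HCl pH 7.5, 5 mM EDTA. Incubated 60 min at RT with 1 nM [3H]5-CT and increasing compound concentrations; nonspecific binding with 10 μM 5-HT. Filtration and scintillation counting, in triplicate.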

[6] = molecular target: T3, 5-HT2A receptor (Homo sapiens, UniProt P28223); experiment: In vitro functional assay for 5-HT2 receptor (intracellular calcium, FLIPR), 5-HT2A; type: cell-based; conditions: same cell lines as receptor binding, read-out: pKb 5-HT2A (converted)
T3 sequence (P28223 whole entry): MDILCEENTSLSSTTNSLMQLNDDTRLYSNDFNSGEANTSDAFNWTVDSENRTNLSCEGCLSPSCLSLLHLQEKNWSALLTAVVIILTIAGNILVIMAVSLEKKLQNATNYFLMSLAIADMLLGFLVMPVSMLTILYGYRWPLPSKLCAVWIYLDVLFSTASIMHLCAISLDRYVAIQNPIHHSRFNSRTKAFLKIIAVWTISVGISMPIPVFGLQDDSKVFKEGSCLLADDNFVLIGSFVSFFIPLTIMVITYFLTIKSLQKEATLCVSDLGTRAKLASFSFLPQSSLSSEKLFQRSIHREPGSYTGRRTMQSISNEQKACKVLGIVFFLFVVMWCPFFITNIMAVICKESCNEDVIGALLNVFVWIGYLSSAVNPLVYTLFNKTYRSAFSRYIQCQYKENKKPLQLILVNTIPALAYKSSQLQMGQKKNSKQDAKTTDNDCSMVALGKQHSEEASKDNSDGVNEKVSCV
Text: The 5-HT2 receptors are linked to the Gq family of G proteins and to subsequent activation of phospholipase C, induction of phosphoinositide metabolism and to an increase in intracelular calcium concentration. The same cell lines as described in the previous section (receptor binding) were used for the FLIPR experiments.

[7] = molecular target: T3, 5-HT2A receptor; experiment: Affinity for 5-HT2A receptor binding sites, radioligand binding with [3H]ketanserin; conditions: read-out: Ki 5-HT2A, rat cortex membranes (assay 2) or NIH3T3 h5-HT2A membranes (assay 3), table does not say which
Method: as §1
The affinity of the compounds for the rat 5-HT2A receptor was evaluated by competitive radioligand binding assay using [^3H]ketanserine as the radioligand. […] Brain tissue (rat cortex) was homogenized in 20 volumes per wet weight tissue of Tris-HCl buffer (50 mM, pH 7.4). The total membrane fraction was collected by centrifugation and washed by subsequent centrifugation runs (25 min at 25,000 g at 4° C.). Membranes were re-suspended in Tris-HCl buffer (50 mM, pH 7.4) containing 1 nM [^3H]ketanserin. Non-specific binding was estimated in the presence of 10 μM risperidone. The incubation was terminated by rapid filtration over Whatman GF/B filters pre-soaked in 0.1% polyethylenimine, and one washing step with 1 mL ice-cold Tris-HCl buffer, pH 7.4.

T1 sequence (P41595 whole entry): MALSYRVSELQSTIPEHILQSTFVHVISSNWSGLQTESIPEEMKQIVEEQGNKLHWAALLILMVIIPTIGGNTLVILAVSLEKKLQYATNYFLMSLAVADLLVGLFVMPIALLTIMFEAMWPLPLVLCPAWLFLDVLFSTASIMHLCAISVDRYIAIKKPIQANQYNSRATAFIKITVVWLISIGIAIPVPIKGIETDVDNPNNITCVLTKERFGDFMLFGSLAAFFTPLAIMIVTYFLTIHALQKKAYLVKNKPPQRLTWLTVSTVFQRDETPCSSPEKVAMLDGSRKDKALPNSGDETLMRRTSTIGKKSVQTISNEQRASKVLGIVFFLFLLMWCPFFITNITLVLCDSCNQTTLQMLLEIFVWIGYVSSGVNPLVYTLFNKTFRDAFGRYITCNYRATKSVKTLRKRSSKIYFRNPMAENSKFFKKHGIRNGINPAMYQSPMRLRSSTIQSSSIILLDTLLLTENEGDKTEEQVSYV

SMILES: C=C1CN(C)CCc2c1nc(Cc1ccc(F)cc1)nc2-c1ccc(F)cc1 [Example 63, 2-(4-Fluoro-benzyl)-4-(4-fluoro-phenyl)-7-methyl-9-methylene-6,7,8,9-tetrahydro-5H-pyrimido[4,5-d]azepine]
- Ki [1]: 52 nM
- Kb [2]: 501 nM
- Ki [3]: 60 nM
- Ki [4]: 46 nM
- Ki [5]: > 10000 nM
- Kb [6]: 15.8 nM
- Ki [7]: 1.5 nM

SMILES: CC(C)c1nc2c(c(-c3ccc(F)cc3)n1)CNCC2 [Example 21, 4-(4-Fluoro-phenyl)-2-isopropyl-5,6,7,8-tetrahydro-pyrido[4,3-d]pyrimidine hydrochloride]
- Ki [1]: 1190 nM
- Ki [3]: > 10000 nM
- Ki [4]: 1170 nM
- Ki [5]: > 10000 nM
- Kb [6]: 31.6 nM
- Ki [7]: 25 nM

SMILES: c1ccc(Cc2nc3c(c(-c4ccccc4)n2)CCNC3)cc1 [Example 78, 2-Benzyl-4-phenyl-5,6,7,8-tetrahydro-pyrido[3,4-d]pyrimidine]
- Ki [1]: 900 nM
- Ki [4]: 380 nM
- Ki [5]: 400 nM
- Kb [6]: 79.4 nM
- Ki [7]: 25 nM

SMILES: Cc1ccc(-c2nc(C3CCCC3)nc3c2CNCC3)cc1 [Example 18, 2-Cyclopentyl-4-p-tolyl-5,6,7,8-tetrahydro-pyrido[4,3-d]pyrimidine]
- Ki [1]: 80 nM
- Kb [2]: 200 nM
- Ki [3]: 330 nM
- Ki [4]: 60 nM
- Ki [5]: 525 nM
- Kb [6]: 25.1 nM
- Ki [7]: 10 nM

SMILES: CN1CCc2c(nc(Cc3ccccc3)nc2-c2ccc(F)cc2)C1 [Example 82, 2-Benzyl-4-(4-fluoro-phenyl)-7-methyl-5,6,7,8-tetrahydro-pyrido[3,4-d]pyrimidine hydrochloride]
- Ki [1]: 500 nM
- Kb [2]: 3980 nM
- Ki [3]: 230 nM
- Ki [4]: 20 nM
- Ki [5]: > 10000 nM
- Kb [6]: 7.94 nM
- Ki [7]: 2 nM

SMILES: Fc1ccc(Cc2nc3c(c(-c4ccc(F)cc4)n2)CCNCC3)cc1 [Example 57, 2-(4-Fluoro-benzyl)-4-(4-fluoro-phenyl)-6,7,8,9-tetrahydro-5H-pyrimido[4,5-d]azepine]
- Ki [1]: 40 nM
- Kb [2]: 126 nM
- Ki [3]: 80 nM
- Ki [4]: 50 nM
- Ki [5]: 550 nM
- Kb [6]: 6.31 nM
- Ki [7]: 0.7 nM

SMILES: Fc1ccc(-c2nc(Cc3ccccc3)nc3c2CCNC3)cc1 [Example 76, 2-Benzyl-4-(4-fluoro-phenyl)-5,6,7,8-tetrahydro-pyrido[3,4-d]pyrimidine hydrochloride]
- Ki [1]: 315 nM
- Ki [3]: 300 nM
- Ki [4]: 75 nM
- Ki [5]: 150 nM
- Kb [6]: 100 nM
- Ki [7]: 9 nM

SMILES: CC(C)c1nc2c(c(-c3ccc(F)cc3)n1)CCNCC2 [Example 50, 4-(4-Fluoro-phenyl)-2-isopropyl-6,7,8,9-tetrahydro-5H-pyrimido[4,5-d]azepine hydrochloride]
- Ki [1]: 20 nM
- Kb [2]: 5.01 nM
- Ki [3]: 260 nM
- Ki [4]: 80 nM
- Ki [5]: 240 nM
- Ki [7]: 3.7 nM

SMILES: COc1ccc(-c2nc(C3CCCC3)nc3c2CCNCC3)cc1 [Example 48, 2-Cyclopentyl-4-(4-methoxy-phenyl)-6,7,8,9-tetrahydro-5H-pyrimido[4,5-d]azepine]
- Ki [1]: 3 nM
- Ki [3]: 24 nM
- Ki [4]: 100 nM
- Ki [5]: 40 nM
- Ki [7]: 20 nM

SMILES: N#Cc1ccc(-c2nc(C3CCCC3)nc3c2CCNCC3)cc1 [Example 49, 4-(2-Cyclopentyl-6,7,8,9-tetrahydro-5H-pyrimido[4,5-d]azepin-4-yl)-benzonitrile]
- Ki [1]: 25 nM
- Ki [3]: 200 nM
- Ki [4]: 400 nM
- Ki [5]: 300 nM
- Ki [7]: 50 nM

SMILES: Cc1ccc(-c2nc(C(C)C)nc3c2CNCC3C)cc1 (stereo not drawn) [Example 102, 2-Isopropyl-8-methyl-4-p-tolyl-5,6,7,8-tetrahydro-pyrido[4,3-d]pyrimidine hydrochloride]
- Ki [1]: 150 nM
- Ki [3]: 370 nM
- Ki [4]: 230 nM
- Ki [5]: > 10000 nM
- Ki [7]: 20 nM

SMILES: CN1CCc2nc(Cc3ccc(F)cc3)nc(-c3ccc(F)cc3)c2CC1 [Example 62, 2-(4-Fluoro-benzyl)-4-(4-fluoro-phenyl)-7-methyl-6,7,8,9-tetrahydro-5H-pyrimido[4,5-d]azepine]
- Ki [1]: 21 nM
- Kb [2]: 50.1 nM
- Ki [3]: 27 nM
- Ki [4]: 21 nM
- Ki [5]: 5270 nM
- Kb [6]: 1.58 nM
- Ki [7]: 0.75 nM

SMILES: Fc1ccc(-c2nc(Cc3ccccc3)nc3c2CCCNC3)cc1 [Example 64, 2-Benzyl-4-(4-fluoro-phenyl)-6,7,8,9-tetrahydro-5H-pyrimido[4,5-c]azepine hydrochloride]
- Ki [1]: 1300 nM
- Ki [3]: 1300 nM
- Ki [4]: 70 nM
- Ki [5]: > 10000 nM
- Kb [6]: 79.4 nM
- Ki [7]: 10 nM

SMILES: Fc1ccc(-c2nc(Cc3ccccc3)nc3c2CCN(Cc2ccccc2)C3)cc1 [Example 70, 2,7-Dibenzyl-4-(4-fluoro-phenyl)-5,6,7,8-tetrahydro-pyrido[3,4-d]pyrimidine hydrochloride]
- Ki [1]: > 10000 nM
- Ki [3]: 250 nM
- Ki [4]: 3730 nM
- Ki [5]: > 10000 nM
- Ki [7]: 117 nM

SMILES: CC(C)c1nc(-c2ccc(F)cc2)c2c(n1)C(C)CNC2 (stereo not drawn) [Example 100, 4-(4-Fluoro-phenyl)-2-isopropyl-8-methyl-5,6,7,8-tetrahydro-pyrido[4,3-d]pyrimidine hydrochloride]
- Ki [1]: 900 nM
- Ki [4]: 300 nM
- Ki [5]: > 10000 nM
- Kb [6]: 100 nM
- Ki [7]: 14 nM

SMILES: Fc1ccc(Cc2nc3c(c(-c4ccc(F)cc4)n2)CNCC3)cc1 [Example 13, 2-(4-Fluoro-benzyl)-4-(4-fluoro-phenyl)-5,6,7,8-tetrahydro-pyrido[4,3-d]pyrimidine]
- Ki [1]: 2200 nM
- Ki [4]: 1000 nM
- Ki [5]: > 10000 nM
- Kb [6]: 79.4 nM
- Ki [7]: 12.5 nM

SMILES: CC(C)c1nc2c(c(-c3ccc(F)cc3)n1)CCNC2 [Example 80, 4-(4-Fluoro-phenyl)-2-isopropyl-5,6,7,8-tetrahydro-pyrido[3,4-d]pyrimidine hydrochloride]
- Ki [1]: 158 nM
- Ki [3]: 2800 nM
- Ki [4]: 940 nM
- Ki [5]: > 10000 nM
- Ki [7]: 11 nM

SMILES: Fc1ccc(-c2nc(C3CCCC3)nc3c2CNCC3)cc1 [Example 17, 2-Cyclopentyl-4-(4-fluoro-phenyl)-5,6,7,8-tetrahydro-pyrido[4,3-d]pyrimidine]
- Ki [1]: 250 nM
- Kb [2]: 3980 nM
- Ki [4]: 70 nM
- Ki [5]: > 10000 nM
- Kb [6]: 7.94 nM
- Ki [7]: 4 nM

SMILES: Fc1ccc(-c2nc(C3CCCC3)nc3c2CCNCC3)cc1 [Example 46, 2-Cyclopentyl-4-(4-fluoro-phenyl)-6,7,8,9-tetrahydro-5H-pyrimido[4,5-d]azepine]
- Ki [1]: 30 nM
- Ki [3]: 100 nM
- Ki [4]: 200 nM
- Ki [5]: 120 nM
- Ki [7]: 14 nM

SMILES: Cc1ccc(-c2nc(Cc3ccccc3)nc3c2CCNC3)cc1 [Example 77, 2-Benzyl-4-p-tolyl-5,6,7,8-tetrahydro-pyrido[3,4-d]pyrimidine hydrochloride]
- Ki [1]: 200 nM
- Ki [3]: 400 nM
- Ki [4]: 130 nM
- Ki [5]: 22 nM
- Ki [7]: 15 nM

SMILES: CC(C)c1nc2c(c(-c3ccc(F)cc3)n1)CCC(N1CCCC1)C2 (stereo not drawn) [Example 107, 4-(4-Fluoro-phenyl)-2-isopropyl-7-pyrrolidin-1-yl-5,6,7,8-tetrahydro-quinazoline]
- Ki [1]: 275 nM
- Ki [3]: 4000 nM
- Ki [4]: 500 nM
- Ki [5]: > 10000 nM
- Ki [7]: 12 nM
